Like-named read-outs stand apart in the source and are kept apart here. Blank lines part the entries; values can stand above or below the compound they belong to.
Experiments:
[1] = Microsomal stability study, negative control incubation; format: in vitro ADME
[2] = In vitro microsomal stability, rat; format: in vitro ADME; details: for Microsomal stability, % remaining: Rat microsomes; for microsomal stability (in words) / % of compound remaining when incubated in rat liver microsomes with NADPH: rat liver microsomes
[3] = In vitro microsomal stability, dog; format: in vitro ADME; details: for Microsomal stability, % remaining: Dog microsomes
[4] = In vitro microsomal stability, human; format: in vitro ADME; details: for Microsomal stability, % remaining: Human microsomes; for microsomal stability (in words) / % of compound remaining when incubated in human liver microsomes with NADPH: human liver microsomes
[5] = tested on: Isogenic HCT-116 colon cancer cell lines; experiment: cells; format: cell-based; details: cell growth;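 further: cells grown in 96-well plates in McCoy's 5A medium with 10% FBS, exposed to compound for 4 days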
Description: Cells were seeded in 96-well flat bottom cell culture plates at a density of 2−3×10^3 cells/well with compounds and incubated for 4 days.

[6] = tested on: cancer cell lines with wild-type p53 / mutated or deleted p53 (ATCC); experiment: Cell growth assay (WST-8), other cancer cell lines; format: cell-based
[7] = Pharmacokinetic studies in rats; format: in vivo, rat
Description: Pharmacokinetic studies on MDM2 inhibitors were carried out in rat. For comparison, the MDM2 inhibitor, AT-219, was also studied.

[8] = molecular target: recombinant human His-tagged MDM2 protein (residues 1-118) (Homo sapiens (Human), UniProt Q00987); experiment: Fluorescence-polarization MDM2 binding assay;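 further: fluorescence polarization read after three hours of incubation in potassium phosphate buffer containing bovine gamma globulin and Triton X-100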
recombinant human His-tagged MDM2 protein (residues 1-118), sequence (Q00987 1-118): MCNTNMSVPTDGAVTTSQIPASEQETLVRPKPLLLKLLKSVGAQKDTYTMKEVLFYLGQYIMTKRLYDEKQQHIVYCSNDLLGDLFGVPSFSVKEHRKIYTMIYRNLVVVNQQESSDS

Microsomal stability, % remaining ([1]; 0 min): 100.00%
Microsomal stability, % remaining ([1]; 5 min): 94.73%
Microsomal stability, % remaining ([1]; 10 min): 90.77%
Microsomal stability, % remaining ([1]; 15 min): 93.43%
Microsomal stability, % remaining ([1]; 30 min): 94.14%
Microsomal stability, % remaining ([1]; 45 min): 91.07%
Microsomal stability, % remaining ([1]; 60 min): 85.38%
Microsomal stability, % remaining ([2]; 0 min): 100.00%
Microsomal stability, % remaining ([2]; 5 min): 68.05%
Microsomal stability, % remaining ([2]; 10 min): 31.04%
Microsomal stability, % remaining ([2]; 15 min): 16.85%
Microsomal stability, % remaining ([2]; 30 min): 6.18%
Microsomal stability, % remaining ([2]; 45 min): 4.40%
Microsomal stability, % remaining ([2]; 60 min): 3.43%
microsomal stability (in words) [2]: metabolized fairly rapidly
Microsomal stability, % remaining ([3]; 0 min): 100.00%
Microsomal stability, % remaining ([3]; 5 min): 77.84%
Microsomal stability, % remaining ([3]; 10 min): 47.98%
Microsomal stability, % remaining ([3]; 15 min): 44.83%
Microsomal stability, % remaining ([3]; 30 min): 21.52%
Microsomal stability, % remaining ([3]; 45 min): 17.08%
Microsomal stability, % remaining ([3]; 60 min): 12.15%
microsomal stability (in words) ([3]; dog microsomes): metabolized fairly rapidly
Microsomal stability, % remaining ([4]; 0 min): 100.00%
Microsomal stability, % remaining ([4]; 5 min): 78.23%
Microsomal stability, % remaining ([4]; 10 min): 58.01%
Microsomal stability, % remaining ([4]; 15 min): 41.59%
Microsomal stability, % remaining ([4]; 30 min): 19.67%
Microsomal stability, % remaining ([4]; 45 min): 10.81%
Microsomal stability, % remaining ([4]; 60 min): 7.18%
microsomal stability (in words) [4]: metabolized fairly rapidly
SMILES: CC(C)(C)C[C@H]1N[C@@H](C(=O)NCC[C@H](O)CO)[C@H](c2cccc(Cl)c2F)[C@@]12C(=O)Nc1cc(Cl)ccc12 [MI-147, reference compound]

SMILES: CC(C)(C)C[C@H]1N[C@@H](C(=O)NC2CCC(NS(C)(=O)=O)CC2)[C@H](c2cccc(Cl)c2F)[C@@]12C(=O)Nc1cc(Cl)ccc12 (stereo partly drawn) [MI-771]
IC50 ([5]; Homo sapiens, HCT-116, read-out: HCT-116 (p53 wild-type) IC50, Table 19A, HCT-116 p53 wild-type): 1000 ± 300 nM
IC50 ([5]; read-out: HCT-116 (p53-/-) IC50, Table 19A, HCT-116 p53-/-): 12000 ± 1100 nM
IC50 ([6]; Homo sapiens, LNCaP, Table 19A, LNCAP cells, p53 wild-type, cell growth, read-out: LNCAP (p53 wild-type) IC50): 1100 ± 100 nM
IC50 ([6]; Homo sapiens, SJSA-1, Table 19A, SJSA-1 cells, p53 wild-type, cell growth, read-out: SJSA-1 (p53 wild-type) IC50): 1200 ± 300 nM
IC50 ([6]; Table 19A, PC-3 cells, deleted p53, cell growth, read-out: PC-3 (deleted p53) IC50): 13700 ± 4400 nM
cell growth inhibition (in words) ([6]; cancer cell lines with wild-type p53): effectively inhibit cell growth
microsomal stability (in words) [2]: very poor microsomal stability
t1/2 ([2]; rat liver microsomes with NADPH): 2.69 min
% of compound remaining when incubated in rat liver microsomes with NADPH ([2]; 0 min): 100.00%
% of compound remaining when incubated in rat liver microsomes with NADPH ([2]; 5 min): 20.48%
% of compound remaining when incubated in rat liver microsomes with NADPH ([2]; 10 min): 7.59%
% of compound remaining when incubated in rat liver microsomes with NADPH ([2]; 15 min): 3.57%
% of compound remaining when incubated in rat liver microsomes with NADPH ([2]; 30 min): 1.22%
% of compound remaining when incubated in rat liver microsomes with NADPH ([2]; 45 min): 0.66%
% of compound remaining when incubated in rat liver microsomes with NADPH ([2]; 60 min): 0.46%
CLz ([7]; rat, IV, 5 mg/kg, plasma, parent compound): 36.7 mL/min/kg
Vd ([7]; rat, plasma, iv, 5 mg/kg, rat, IV, 5 mg/kg, plasma, parent compound, read-out: Vz): 7.1 L/kg
pharmacokinetic profile (in words) ([7]; rats, intravenous and oral routes of dosing): very poor pharmacokinetic profile
IC50 ([8]; Table 19A, FP binding assay, read-out: MDM2 IC50): < 1000 nM
binding to MDM2 (in words) ([8]; human MDM2 protein): high affinities
microsomal stability (in words) [4]: very poor microsomal stability
t1/2 ([4]; human liver microsomes with NADPH): 3.12 min
% of compound remaining when incubated in human liver microsomes with NADPH ([4]; 0 min): 100.00%
% of compound remaining when incubated in human liver microsomes with NADPH ([4]; 5 min): 27.98%
% of compound remaining when incubated in human liver microsomes with NADPH ([4]; 10 min): 10.82%
% of compound remaining when incubated in human liver microsomes with NADPH ([4]; 15 min): 4.30%
% of compound remaining when incubated in human liver microsomes with NADPH ([4]; 30 min): 0.82%
% of compound remaining when incubated in human liver microsomes with NADPH ([4]; 45 min): 0.00%
% of compound remaining when incubated in human liver microsomes with NADPH ([4]; 60 min): 0.00%

— patent publication US9079913B2, “Spiro-oxindole MDM2 antagonists” (The Regents of the University of Michigan, priority 2009, dated 2015)
